Source: patent US8236827B2, “Compounds” (Spear Therapeutics Limited, priority 2009, dated 2012)
Blank lines part the entries; values can stand above or below the compound they belong to.

Columns and labels:
[1] = molecular target: CSK (Homo sapiens, UniProt P41240); assay: Cerep kinase screen; format: biochemical; details: read-out: % Inhibition of Control
Description: (§1) Kinase screening was performed by Cerep Laboratories (Celle l′Evescault, France). Compounds were screened in duplicate at a single concentration (10 μM). The results, set forth in Table 4 below, are expressed as percent inhibition of control specific activity: {100−[(measured specific activity/control specific activity)×100]} obtained in the presence of Compound XI and Compound V. ATP concentrations correspond to the ATP Km value for each individual kinase (Cerep, private communication). In each experiment, a reference compound was tested concurrently with Compound XI and Compound V in order to assess the assay reliability. IC50 values for the reference compounds were within accepted limits (±0.5 log units) of the historic average.

[2] = molecular target: FGFR2 (Homo sapiens, UniProt P21802); assay: Cerep kinase screen; format: biochemical; details: read-out: % Inhibition of Control
Description: as §1

[3] = molecular target: KDR (VEGFR2) (Homo sapiens, UniProt P35968); assay: Cerep kinase screen; format: biochemical; details: read-out: % Inhibition of Control
Description: as §1

[4] = molecular target: FLT-3 (Homo sapiens, UniProt P36888); assay: Cerep kinase screen; format: biochemical; details: read-out: % Inhibition of Control
Description: as §1

[5] = molecular target: FLT-1 (Homo sapiens, UniProt P17948); assay: Cerep kinase screen; format: biochemical; details: read-out: % Inhibition of Control
Description: as §1

[6] = molecular target: PDGFRβ (Homo sapiens, UniProt P09619); assay: Cerep kinase screen; format: biochemical; details: read-out: % Inhibition of Control
Description: as §1

[7] = molecular target: Lyn (Homo sapiens, UniProt P07948); assay: Cerep kinase screen; format: biochemical; details: read-out: % Inhibition of Control
Description: as §1

[8] = molecular target: C-Met (HGFR) (Homo sapiens, UniProt P08581); assay: Cerep kinase screen; format: biochemical; details: read-out: % Inhibition of Control
Description: as §1

[9] = molecular target: FGFR4 (Homo sapiens, UniProt P22455); assay: Cerep kinase screen; format: biochemical; details: read-out: % Inhibition of Control
Description: as §1

[10] = molecular target: Fyn (Homo sapiens, UniProt P06241); assay: Cerep kinase screen; format: biochemical; details: read-out: % Inhibition of Control
Description: as §1

[11] = molecular target: T1, CYP1A2 (Homo sapiens, UniProt P05177); assay: CYP phenotyping, metabolic stability; format: in vitro ADME; details: CYP1A2 (40 pm/mL)
T1 sequence (P05177 1-516): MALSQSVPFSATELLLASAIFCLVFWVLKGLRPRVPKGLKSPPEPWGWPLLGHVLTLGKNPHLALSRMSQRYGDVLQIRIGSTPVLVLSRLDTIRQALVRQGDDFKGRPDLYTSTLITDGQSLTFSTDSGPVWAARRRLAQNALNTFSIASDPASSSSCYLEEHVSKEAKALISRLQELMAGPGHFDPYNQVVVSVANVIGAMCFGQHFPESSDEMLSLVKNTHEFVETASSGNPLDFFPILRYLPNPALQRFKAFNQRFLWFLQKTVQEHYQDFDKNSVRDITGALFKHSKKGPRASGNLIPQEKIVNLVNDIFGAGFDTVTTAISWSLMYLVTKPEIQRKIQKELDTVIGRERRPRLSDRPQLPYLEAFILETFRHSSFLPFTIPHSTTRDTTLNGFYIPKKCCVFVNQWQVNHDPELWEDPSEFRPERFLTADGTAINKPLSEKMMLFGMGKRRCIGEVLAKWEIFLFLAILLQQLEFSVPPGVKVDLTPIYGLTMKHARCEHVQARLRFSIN
Description: (§2) As mentioned above, a feature of the compounds of the invention is their metabolism by CYP1B1 which is expressed at high frequency in a wide range of human cancers of different histogenetic types, but not in normal tissues. […] Compounds V and II were exposed to a panel of six CYPs (see Table 5 below).
(§3) CYP metabolism studies were performed by Cerep Laboratories (Redmond, Wash., USA). Compounds were screened in duplicate at 1 μM in the presence of CYP enzyme, NADP (1.3 mM), D-Glucose-6-phosphate (3.3 mM) and Glucose-6-phosphate dehydrogenase. Following incubation at 0 and 60 minutes, parent compound levels were determined using standard HPLC/MS/MS procedures. The results are expressed as percent parent compound remaining after 60 minutes.

[12] = test system: wild-type CHO cells; assay: Cytotoxicity (MTS) in wild-type CHO cells; format: cell-based, Chinese Hamster
Description: CHO cells: Chinese Hamster Ovary (CHO) DUKXB11 cells were grown under standard cell culture conditions in α-MEM supplemented with 10% FCS, 1 unit/ml each of hypoxanthine and thymidine, and penicillin (100 IU/ml) and streptomycin (100 μg/ml) according to literature methods (Ding S, et al., Arch. Biochem. Biophys., 348: 403-410, 1997, the contents of which are incorporated herein by reference). Cells were grown at 37° C. in a humidified atmosphere plus 5% CO2.
(§4) A single cell suspension of CHO, CHO/CYP1A1 or CHO/CYP1B1 in 100 μl of the required cell culture medium was seeded onto 96-well plates at a cell density of 1500 cells per well and placed in an incubator for 24 h at 37° C. The stock solution of test compound in DMSO was then added to give a concentration range of 100, 30, 10, 3, 1, 0.3, 0.1, 0.03, 0.01, 0.003, 0.001, 0 μM. The final concentration of DMSO 0.2% was found not to affect the growth characteristics of the various CHO cell lines. The cells were incubated with the test compound for 96 h after which all the medium was aspirated and replaced with 100 μl of fresh medium to compensate for the loss of medium due to evaporation. The cells were incubated with 20 μl of the MTS assay reagent for 1.5 h and the absorbance per well at 510 nm measured using a plate reader. The mean absorbance and standard deviation for each test compound concentration was calculated versus a series of controls including (a) cells plus medium, (b) cell plus medium containing DMSO 0.2%, (c) medium alone, and (d) medium containing DMSO 0.2% and a range of test compound concentrations from 0 to 100 μM.
(§5) The MTS assay is a homogeneous, colorimetric method for determining the number of viable cells in proliferation, cytotoxicity or chemosensitivity assays (Cali J J, et al., “Luminescence-Based Methods and Probes for Measuring Cytochrome P450 Activity”, pp. 1-29. Promega Corporation, United States, 2004, the contents of which are incorporated herein by reference). The assay is composed of solutions of tetrazolium compound [3-(4,5-dimethylthiazol-2-yl)-5-(3-carboxymethoxyphenyl)-2-(4-sulfophenyl)-2H-tetrazolium, inner salt; MTS] and an electron coupling reagent (phenazine methosulfate) PMS. MTS is bioreduced by cells into a formazan product that is soluble in tissue culture medium. The absorbance of the formazan product at 510 nm can be directly measured from 96-well assay plates. The quantity of formazan product as measured by the amount of absorbance at 490 or 510 nm is directly proportional to the number of living cells in culture.

[13] = molecular target: CYP2C9 (Homo sapiens, UniProt P11712); assay: CYP phenotyping, metabolic stability; format: in vitro ADME; details: CYP2C9 (10 pm/mL); 1 μM; after 60 minutes
Description: (§6) Compounds V and II were exposed to a panel of six CYPs (see Table 5 below).
as §3

[14] = molecular target: CYP2C19 (Homo sapiens, UniProt P33261); assay: CYP phenotyping, metabolic stability; format: in vitro ADME; details: CYP2C19 (10 pm/mL); 1 μM; after 60 minutes
Description: as §6, §3

[15] = molecular target: CYP2D6 (Homo sapiens, UniProt P10635); assay: CYP phenotyping, metabolic stability; format: in vitro ADME; details: CYP2D6 (10 pm/mL); 1 μM; after 60 minutes
Description: as §6, §3

[16] = molecular target: CYP3A4 (Homo sapiens, UniProt P08684); assay: CYP phenotyping, metabolic stability; format: in vitro ADME; details: CYP3A4 (10 pm/mL); 1 μM; after 60 minutes
Description: as §6, §3

[17] = test system: CHO/CYP1A1 cells; assay: Cytotoxicity (MTS) in CHO/CYP1A1 cells; format: cell-based, Chinese Hamster
Description: (§7) CHO/CYP1A1 and CHO/CYP1B1 cells: CHO cells containing recombinant CYP1A1 and recombinant CYP1B1 co-expressing P450 reductase, namely (CHO/CYP1A1) and (CHO/CYP1B1) respectively, were cultured using the standard culture medium for CHO cells supplemented with 0.4 mg/ml G418 disulfate salt and 0.3 μM methotrexate (Sigma/Aldrich Co., Gillingham, Dorset, UK) according to methods described in the literature (ibid.) Cells were grown at 37° C. in a humidified atmosphere plus 5% CO2.
as §4, §5

[18] = Cytotoxicity (MTS) in CHO/CYP1A1 cells; format: cell-based, Chinese Hamster; details: Chinese hamster; 96 h, MTS
Description: as §7, §4, §5

[19] = molecular target: CYP3A5 (Homo sapiens, UniProt P20815); assay: CYP phenotyping, metabolic stability; format: in vitro ADME; details: CYP3A5 (10 pm/mL); 1 μM; after 60 minutes
Description: as §2, §3

[20] = test system: UTSCC-14 xenograft tumours; assay: UTSCC-14 xenograft study in nu/nu mice; format: in vivo; details: 7, 20, 50 mg/kg i.p. daily for 29 days; tumours excised day 40; versus vehicle control
Description: The study compared the efficacy of Compound II with a vehicle control in UTSCC-14 xenograft tumours at three different dose levels.
Forty female nu/nu mice (7-9 wks old, weight 20-25 grams) were implanted sc with 2e6 UTSCC-14 cells and randomized 10 days later into […] (Table 1) with an approximate tumour volume of 100-150 mm-3. All groups were dosed daily ip for 29 days. On day 40 tumours were excised and weighed.
The UTSCC-14 cells used in the experiment were sourced from Professor Reidar Grénman's laboratory at the University of Turku, Department of Head and Neck Surgery, Turku University, Turku, Finland) and taken from a grade II primary tumour from the tongue of a head and neck cancer patient.
Compound II was dissolved/suspended in 100% cell culture grade DMSO at 40 mg/ml, before dilution with ddH20 immediately prior to dosing to make a stock 50% DMSO/Water solution. This stock solution was used to prepare all doses by dilution with 50% DMSO/Water to achieve the required concentration.
FIG. 2 compares the weight in grams of tumours excised on day 40 of the study. […] The study provides evidence that Compound II (and related compounds described here) are useful in the development of novel cancer therapies.

[21] = test system: CHO/CYP1B1 cells; assay: Cytotoxicity (MTS) in CHO/CYP1B1 cells; format: cell-based, Chinese Hamster
Description: as §7, §4, §5

[22] = Cytotoxicity (MTS) in CHO/CYP1B1 cells; format: cell-based, Chinese Hamster; details: Chinese hamster; 96 h, MTS; read-out: CHO/CYP1B1 IC50
Description: as §7, §4, §5

CYP3A4, sequence (P08684 whole entry, species assumed): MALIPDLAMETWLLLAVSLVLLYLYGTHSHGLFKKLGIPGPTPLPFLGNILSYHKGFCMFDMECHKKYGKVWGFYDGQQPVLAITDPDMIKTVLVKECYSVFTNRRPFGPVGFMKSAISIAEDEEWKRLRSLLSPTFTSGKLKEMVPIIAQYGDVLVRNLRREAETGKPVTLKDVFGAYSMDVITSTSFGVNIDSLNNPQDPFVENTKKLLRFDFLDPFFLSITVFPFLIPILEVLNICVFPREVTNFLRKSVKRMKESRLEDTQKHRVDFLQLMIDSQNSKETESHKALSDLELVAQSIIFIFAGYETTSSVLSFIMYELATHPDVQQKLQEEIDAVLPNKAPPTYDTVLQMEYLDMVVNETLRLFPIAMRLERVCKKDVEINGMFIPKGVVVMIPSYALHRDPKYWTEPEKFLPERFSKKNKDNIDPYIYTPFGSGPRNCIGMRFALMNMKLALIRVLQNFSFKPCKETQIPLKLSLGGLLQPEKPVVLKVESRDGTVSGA
CYP2D6, sequence (P10635 whole entry, species assumed): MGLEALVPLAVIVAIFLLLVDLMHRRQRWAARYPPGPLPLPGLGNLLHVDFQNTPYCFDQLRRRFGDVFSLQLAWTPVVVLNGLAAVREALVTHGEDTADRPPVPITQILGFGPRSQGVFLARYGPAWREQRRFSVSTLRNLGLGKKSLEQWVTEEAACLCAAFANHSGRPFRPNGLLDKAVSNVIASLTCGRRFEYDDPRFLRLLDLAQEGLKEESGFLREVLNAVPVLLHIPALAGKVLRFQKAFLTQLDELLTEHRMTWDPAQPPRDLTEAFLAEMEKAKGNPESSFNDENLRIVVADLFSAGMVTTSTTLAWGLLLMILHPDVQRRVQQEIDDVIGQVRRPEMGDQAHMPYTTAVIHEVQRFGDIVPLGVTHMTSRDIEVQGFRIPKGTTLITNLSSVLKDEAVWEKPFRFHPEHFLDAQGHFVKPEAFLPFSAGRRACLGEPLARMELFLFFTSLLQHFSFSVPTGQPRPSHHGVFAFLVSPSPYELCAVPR
PDGFRβ, sequence (P09619 33-1106, species assumed): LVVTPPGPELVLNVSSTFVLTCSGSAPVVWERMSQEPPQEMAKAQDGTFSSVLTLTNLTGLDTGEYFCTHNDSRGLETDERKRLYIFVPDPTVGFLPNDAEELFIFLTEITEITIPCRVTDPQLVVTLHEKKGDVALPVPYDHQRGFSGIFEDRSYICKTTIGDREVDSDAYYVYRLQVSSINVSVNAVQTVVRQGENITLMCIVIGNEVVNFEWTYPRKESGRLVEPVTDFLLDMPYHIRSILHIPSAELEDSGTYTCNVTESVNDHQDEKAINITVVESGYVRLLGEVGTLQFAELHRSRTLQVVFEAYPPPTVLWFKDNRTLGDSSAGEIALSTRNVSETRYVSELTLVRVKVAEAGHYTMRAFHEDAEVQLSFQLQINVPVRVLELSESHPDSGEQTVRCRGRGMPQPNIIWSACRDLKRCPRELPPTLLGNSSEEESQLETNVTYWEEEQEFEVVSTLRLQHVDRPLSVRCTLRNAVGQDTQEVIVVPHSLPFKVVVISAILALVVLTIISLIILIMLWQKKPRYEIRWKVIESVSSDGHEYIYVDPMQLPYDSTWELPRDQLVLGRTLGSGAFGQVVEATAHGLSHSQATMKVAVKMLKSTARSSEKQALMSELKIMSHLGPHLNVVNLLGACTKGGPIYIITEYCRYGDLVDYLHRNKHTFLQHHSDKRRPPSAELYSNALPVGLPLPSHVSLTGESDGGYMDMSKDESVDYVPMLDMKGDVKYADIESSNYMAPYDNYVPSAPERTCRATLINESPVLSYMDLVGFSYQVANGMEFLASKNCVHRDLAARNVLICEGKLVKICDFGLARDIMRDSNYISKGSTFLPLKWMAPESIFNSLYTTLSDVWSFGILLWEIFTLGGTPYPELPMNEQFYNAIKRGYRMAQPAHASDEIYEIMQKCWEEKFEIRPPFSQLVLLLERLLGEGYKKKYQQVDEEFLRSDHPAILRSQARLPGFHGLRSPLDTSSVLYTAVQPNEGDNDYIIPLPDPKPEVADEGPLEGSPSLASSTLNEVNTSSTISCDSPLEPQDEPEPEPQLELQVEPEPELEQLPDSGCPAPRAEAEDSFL
FLT-1, sequence (P17948 27-1338, species assumed): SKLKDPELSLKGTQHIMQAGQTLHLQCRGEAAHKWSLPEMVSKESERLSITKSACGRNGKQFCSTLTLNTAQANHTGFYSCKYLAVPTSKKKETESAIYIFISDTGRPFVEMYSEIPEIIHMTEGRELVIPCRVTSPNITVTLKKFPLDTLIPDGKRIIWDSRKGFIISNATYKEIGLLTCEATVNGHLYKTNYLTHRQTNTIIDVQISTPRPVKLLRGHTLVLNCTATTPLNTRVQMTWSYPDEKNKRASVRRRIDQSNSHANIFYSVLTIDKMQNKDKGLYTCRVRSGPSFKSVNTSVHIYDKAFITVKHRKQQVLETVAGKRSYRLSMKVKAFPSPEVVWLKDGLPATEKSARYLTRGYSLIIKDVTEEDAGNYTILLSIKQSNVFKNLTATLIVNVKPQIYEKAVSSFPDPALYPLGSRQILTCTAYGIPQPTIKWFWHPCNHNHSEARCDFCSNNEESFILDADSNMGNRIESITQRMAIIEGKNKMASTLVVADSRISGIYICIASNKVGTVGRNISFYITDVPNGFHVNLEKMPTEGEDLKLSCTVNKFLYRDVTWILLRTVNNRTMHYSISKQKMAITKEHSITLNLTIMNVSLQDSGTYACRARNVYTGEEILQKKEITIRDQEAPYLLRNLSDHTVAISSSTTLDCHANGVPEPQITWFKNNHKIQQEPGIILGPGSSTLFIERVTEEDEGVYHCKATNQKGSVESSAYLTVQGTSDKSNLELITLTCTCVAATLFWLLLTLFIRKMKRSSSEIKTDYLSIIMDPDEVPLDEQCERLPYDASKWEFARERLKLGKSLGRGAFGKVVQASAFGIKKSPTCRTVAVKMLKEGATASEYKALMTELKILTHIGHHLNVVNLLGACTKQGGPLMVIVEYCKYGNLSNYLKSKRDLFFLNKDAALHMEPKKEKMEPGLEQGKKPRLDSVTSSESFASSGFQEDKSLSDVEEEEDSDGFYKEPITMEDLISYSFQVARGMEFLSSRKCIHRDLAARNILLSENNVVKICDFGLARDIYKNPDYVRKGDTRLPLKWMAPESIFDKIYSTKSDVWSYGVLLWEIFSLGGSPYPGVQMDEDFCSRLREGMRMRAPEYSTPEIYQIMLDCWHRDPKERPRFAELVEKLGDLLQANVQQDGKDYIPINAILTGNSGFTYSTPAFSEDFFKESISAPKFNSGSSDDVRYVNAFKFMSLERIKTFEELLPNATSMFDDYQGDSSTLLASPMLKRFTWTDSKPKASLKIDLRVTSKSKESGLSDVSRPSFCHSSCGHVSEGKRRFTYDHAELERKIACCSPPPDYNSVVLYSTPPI
Lyn, sequence (P07948 whole entry, species assumed): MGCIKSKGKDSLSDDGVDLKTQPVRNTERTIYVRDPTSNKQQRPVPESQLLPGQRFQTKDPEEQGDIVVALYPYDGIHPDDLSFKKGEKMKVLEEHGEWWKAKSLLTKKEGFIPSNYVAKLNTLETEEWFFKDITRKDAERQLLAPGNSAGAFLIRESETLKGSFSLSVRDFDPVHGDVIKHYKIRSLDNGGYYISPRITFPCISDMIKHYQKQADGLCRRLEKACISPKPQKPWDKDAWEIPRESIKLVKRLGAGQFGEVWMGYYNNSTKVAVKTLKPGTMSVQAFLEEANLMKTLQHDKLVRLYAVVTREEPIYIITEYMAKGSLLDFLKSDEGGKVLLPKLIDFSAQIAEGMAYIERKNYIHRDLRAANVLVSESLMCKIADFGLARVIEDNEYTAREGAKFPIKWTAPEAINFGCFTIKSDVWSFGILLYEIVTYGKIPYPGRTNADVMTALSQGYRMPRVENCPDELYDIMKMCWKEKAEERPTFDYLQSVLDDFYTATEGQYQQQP
CYP2C19, sequence (P33261 whole entry, species assumed): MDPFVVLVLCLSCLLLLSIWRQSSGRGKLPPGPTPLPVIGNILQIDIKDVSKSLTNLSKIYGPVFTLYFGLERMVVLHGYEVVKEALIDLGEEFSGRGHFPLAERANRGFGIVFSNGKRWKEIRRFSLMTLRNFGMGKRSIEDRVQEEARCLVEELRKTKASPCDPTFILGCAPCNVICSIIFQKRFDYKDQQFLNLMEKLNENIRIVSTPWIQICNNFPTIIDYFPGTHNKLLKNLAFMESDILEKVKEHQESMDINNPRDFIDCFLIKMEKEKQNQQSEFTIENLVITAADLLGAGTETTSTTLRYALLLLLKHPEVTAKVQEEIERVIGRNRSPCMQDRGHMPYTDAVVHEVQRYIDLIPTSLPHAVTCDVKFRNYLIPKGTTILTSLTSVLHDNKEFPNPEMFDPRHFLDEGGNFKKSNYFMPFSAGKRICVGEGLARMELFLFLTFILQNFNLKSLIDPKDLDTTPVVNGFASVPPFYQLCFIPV
Fyn, sequence (P06241 whole entry, species assumed): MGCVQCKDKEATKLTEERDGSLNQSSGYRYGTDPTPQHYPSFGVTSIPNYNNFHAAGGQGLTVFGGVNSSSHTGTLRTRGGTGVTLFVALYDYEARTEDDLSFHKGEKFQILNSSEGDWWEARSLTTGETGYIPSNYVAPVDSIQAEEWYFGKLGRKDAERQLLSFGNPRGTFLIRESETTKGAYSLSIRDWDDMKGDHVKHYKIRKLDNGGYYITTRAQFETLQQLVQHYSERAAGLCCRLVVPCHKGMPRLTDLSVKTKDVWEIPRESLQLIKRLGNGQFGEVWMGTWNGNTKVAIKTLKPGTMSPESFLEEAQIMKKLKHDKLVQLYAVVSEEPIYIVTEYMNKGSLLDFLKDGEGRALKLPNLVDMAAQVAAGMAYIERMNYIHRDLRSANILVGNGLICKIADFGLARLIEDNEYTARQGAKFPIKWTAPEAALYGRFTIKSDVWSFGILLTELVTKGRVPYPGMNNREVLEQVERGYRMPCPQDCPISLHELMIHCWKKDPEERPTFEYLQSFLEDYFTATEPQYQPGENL

SMILES: COc1ccc(-c2cc(-c3ccc(O)c(O)c3)cc(=O)[nH]2)cc1OC [Compound XI]
inhibition at 10 µM [1]: 98%
inhibition at 10 µM [2]: 98%
inhibition at 10 µM [3]: 96%
inhibition at 10 µM [4]: 93%
inhibition at 10 µM [5]: 98%
inhibition at 10 µM [6]: 91%
inhibition at 10 µM [7]: 99%
inhibition at 10 µM [8]: 58%
inhibition at 10 µM [9]: 85%
inhibition at 10 µM [10]: 100%

% Reference Compound Remaining ([11]; reference compound): 0%
SMILES: CCOc1ccc2nc3ccc(=O)cc-3oc2c1 [Ethoxy-resorufin, 7-ethoxyresorufin, reference compound]

Mean Parent Remaining (%) [13]: 130%
Mean Parent Remaining (%) [14]: 127%
Mean Parent Remaining (%) [15]: 127%
Mean Parent Remaining (%) [16]: 122%
Mean Parent Remaining (%) [19]: 126%
Mean Parent Remaining (%) ([11]; 1 μM, after 60 minutes): 69%
SMILES: CCCOc1ccc(-c2cc(-c3ccc(OC)c(OC)c3)[nH]c(=O)c2)cc1 [Compound II]
toxicity to wild-type CHO cells (in words) [12]: non toxic
IC50 ([12]; Cricetulus griseus, CHO, 96 h, MTS): > 50 µM
toxicity / activity in CYP1A1 expressing CHO cells (in words) [17]: non toxic
IC50 at 96 h [18]: > 50 µM
wet tumour weight at the end of the study (FIG. 2) [20]: dose dependent reduction in wet tumour weight
activity against CHO/CYP1B1 cells (in words) [21]: strongly inhibit proliferation
IC50 at 96 h [22]: 0.09 ± 0.05 µM
